According to patent publication US10981911B2, “Imidazopyrrolopyridine as inhibitors of the JAK family of kinases” (Janssen Pharmaceutica NV, priority 2016, dated 2021):

What was measured:
Assay type in all cases: biochemical
[1] = molecular target: JAK2-JH1JH2 (Homo sapiens (Human), UniProt O60674); assay: Enzymatic inhibition assay (RapidFire HTMS), JAK2; settings: 30 μM ATP, 40 μM substrate
Method in brief: (§1)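 Quenched with 0.5% TFA plus internal-standard peptide; phosphorylated product quantified by RapidFire C4 SPE–ESI-MS, 11-point 1:3 or 1:4 dilutions in duplicate.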

[2] = molecular target: JAK3-JH1JH2 (Homo sapiens (Human), UniProt P52333); assay: Enzymatic inhibition assay (RapidFire HTMS), JAK3; settings: 150 μM ATP, 40 μM substrate
Sequence of JAK3-JH1JH2 (P52333 512-1124): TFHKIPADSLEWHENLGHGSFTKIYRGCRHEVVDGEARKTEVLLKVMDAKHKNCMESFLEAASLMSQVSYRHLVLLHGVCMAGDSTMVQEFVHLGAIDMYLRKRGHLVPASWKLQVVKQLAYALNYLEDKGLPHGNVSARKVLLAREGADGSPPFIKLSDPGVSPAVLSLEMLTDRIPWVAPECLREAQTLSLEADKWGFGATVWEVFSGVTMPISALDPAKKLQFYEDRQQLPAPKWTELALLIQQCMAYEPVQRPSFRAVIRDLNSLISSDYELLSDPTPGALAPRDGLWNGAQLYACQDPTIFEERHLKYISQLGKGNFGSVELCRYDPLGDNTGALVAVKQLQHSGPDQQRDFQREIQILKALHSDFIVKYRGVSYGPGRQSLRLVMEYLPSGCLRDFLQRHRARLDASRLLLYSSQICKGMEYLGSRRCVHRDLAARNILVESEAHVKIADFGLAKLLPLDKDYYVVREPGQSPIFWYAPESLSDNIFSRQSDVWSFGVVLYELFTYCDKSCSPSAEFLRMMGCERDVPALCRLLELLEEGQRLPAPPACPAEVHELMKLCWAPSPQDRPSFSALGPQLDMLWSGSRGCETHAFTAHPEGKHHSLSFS
Method in brief: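 Compounds tested in duplicate over 11-point 1:3 or 1:4 dilution series; no-enzyme wells as negative control. After 45 min at 25 °C, TFA quench with internal standard, and phosphorylated product quantified by RapidFire–QTrap mass spectrometry relative to the uninhibited reaction.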

[3] = molecular target: JAK1-JH1JH2 (Homo sapiens (Human), UniProt P23458); assay: Enzymatic inhibition assay (RapidFire HTMS), JAK1; settings: 12.5 μM ATP, 200 μM substrate; read-out: JAK1-JH2JH1 IC50
Sequence of JAK1-JH1JH2 (P23458 574-1154): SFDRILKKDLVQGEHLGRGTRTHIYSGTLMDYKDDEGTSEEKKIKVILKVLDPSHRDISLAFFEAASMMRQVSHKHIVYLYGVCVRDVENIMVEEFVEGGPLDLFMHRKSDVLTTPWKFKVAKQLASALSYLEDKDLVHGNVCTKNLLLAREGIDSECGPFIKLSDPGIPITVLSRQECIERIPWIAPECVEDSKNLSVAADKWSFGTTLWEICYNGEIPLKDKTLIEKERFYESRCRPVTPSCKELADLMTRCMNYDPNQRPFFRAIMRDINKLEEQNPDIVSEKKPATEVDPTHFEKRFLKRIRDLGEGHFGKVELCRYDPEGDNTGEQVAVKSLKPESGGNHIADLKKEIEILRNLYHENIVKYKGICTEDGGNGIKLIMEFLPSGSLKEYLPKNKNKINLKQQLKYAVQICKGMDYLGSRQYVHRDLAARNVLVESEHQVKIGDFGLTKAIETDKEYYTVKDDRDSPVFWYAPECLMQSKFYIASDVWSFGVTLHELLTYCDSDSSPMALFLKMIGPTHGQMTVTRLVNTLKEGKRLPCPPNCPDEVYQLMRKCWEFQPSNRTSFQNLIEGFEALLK
Method in brief: as §1

[4] = molecular target: Tyk2-JH1JH2 (Homo sapiens (Human), UniProt P29597, C1142A/C936A); assay: Enzymatic inhibition assay (RapidFire HTMS), Tyk2; settings: 50 μM ATP, 200 μM substrate
Sequence of Tyk2-JH1JH2 (P29597 580-1182 C936A/C1142A): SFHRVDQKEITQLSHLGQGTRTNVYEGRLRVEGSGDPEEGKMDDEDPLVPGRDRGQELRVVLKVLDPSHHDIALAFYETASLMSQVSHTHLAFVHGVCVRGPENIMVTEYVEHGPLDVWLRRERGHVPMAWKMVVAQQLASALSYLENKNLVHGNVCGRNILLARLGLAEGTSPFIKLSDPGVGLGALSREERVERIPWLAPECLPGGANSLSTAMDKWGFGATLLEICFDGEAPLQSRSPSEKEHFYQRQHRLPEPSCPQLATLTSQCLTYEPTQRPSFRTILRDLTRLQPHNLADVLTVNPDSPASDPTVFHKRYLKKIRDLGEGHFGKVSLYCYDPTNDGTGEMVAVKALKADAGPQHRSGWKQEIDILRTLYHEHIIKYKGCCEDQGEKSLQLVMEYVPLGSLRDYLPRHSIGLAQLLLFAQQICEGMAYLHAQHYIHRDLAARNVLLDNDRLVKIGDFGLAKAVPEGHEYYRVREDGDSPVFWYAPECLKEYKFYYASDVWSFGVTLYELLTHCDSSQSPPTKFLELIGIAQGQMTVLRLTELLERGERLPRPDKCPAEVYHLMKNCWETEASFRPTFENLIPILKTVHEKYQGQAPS
Method in brief: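 Compounds were tested in duplicate as 11-point 1:3 or 1:4 DMSO dilutions (≤0.25% DMSO final) in 20 μL reactions at 25 °C for 90 min, with Tyk2 pre-incubated 30 min with 2 mM ATP. Reactions were quenched with TFA plus internal standard peptide, and phosphorylated product was quantified by RapidFire C4 SPE–ESI MS.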

Sequence of JAK2-JH1JH2 (O60674 532-1132): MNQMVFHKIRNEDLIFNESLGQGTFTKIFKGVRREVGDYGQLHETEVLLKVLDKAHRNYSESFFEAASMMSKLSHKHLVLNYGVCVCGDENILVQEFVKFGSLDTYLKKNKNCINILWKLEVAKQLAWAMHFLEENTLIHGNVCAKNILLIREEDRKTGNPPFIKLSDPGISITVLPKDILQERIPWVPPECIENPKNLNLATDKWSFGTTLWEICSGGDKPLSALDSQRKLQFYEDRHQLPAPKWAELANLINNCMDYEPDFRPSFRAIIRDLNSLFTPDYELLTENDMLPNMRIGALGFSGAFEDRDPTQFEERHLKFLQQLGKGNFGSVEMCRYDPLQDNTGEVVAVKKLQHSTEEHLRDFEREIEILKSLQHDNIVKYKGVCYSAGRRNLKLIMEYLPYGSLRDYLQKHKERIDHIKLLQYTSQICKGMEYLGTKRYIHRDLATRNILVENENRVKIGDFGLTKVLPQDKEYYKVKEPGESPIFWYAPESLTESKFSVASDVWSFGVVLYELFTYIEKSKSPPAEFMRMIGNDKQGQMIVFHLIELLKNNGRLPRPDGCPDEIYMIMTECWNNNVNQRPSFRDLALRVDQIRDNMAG

IC50 [1] | IC50 [2] | IC50 [3] | IC50 [4] | SMILES
42.3 nM | 16.6 nM | 3.4 nM | 182 nM | CC(C)(O)CNC(=O)Cc1nc2cnc3[nH]cc(Br)c3c2n1[C@H]1CC[C@H](CC#N)CC1 [Ex. 189, 2-(8-bromo-1-((1r,4r)-4-(cyanomethyl)cyclohexyl)-1,6-dihydroimidazo[4,5-d]pyrrolo[2,3-b]pyridin-2-yl)-N-(2-hydroxy-2-methylpropyl)acetamide]
150 nM | 102 nM | 12.4 nM | 458 nM | Cc1c[nH]c2ncc3nc(CC(=O)NCC(C)(C)O)n([C@H]4CC[C@H](CC#N)CC4)c3c12 [Ex. 190, 2-(1-((1r,4r)-4-(cyanomethyl)cyclohexyl)-8-methyl-1,6-dihydroimidazo[4,5-d]pyrrolo[2,3-b]pyridin-2-yl)-N-(2-hydroxy-2-methylpropyl)acetamide]
57.3 nM | 1340 nM | 1.3 nM | 20.6 nM | Cc1cc2c(ncc3nc(CC(=O)NCC(C)(C)O)n([C@H]4CC[C@H](CC#N)CC4)c32)[nH]1 [Ex. 191, 2-(1-((1r,4r)-4-(Cyanomethyl)cyclohexyl)-7-methyl-1,6-dihydroimidazo[4,5-d]pyrrolo[2,3-b]pyridin-2-yl)-N-(2-hydroxy-2-methylpropyl)acetamide]
69 nM | 1120 nM | 1 nM | 25.8 nM | COCCOCCOCCOCCc1nc2cnc3[nH]ccc3c2n1[C@H]1CC[C@H](CC#N)CC1 [Ex. 192, 2-((1r,4r)-4-(2-(2,5,8,11-Tetraoxatridecan-13-yl)imidazo[4,5-d]pyrrolo[2,3-b]pyridin-1(6H)-yl)cyclohexyl)acetonitrile]
10.1 nM | 69.5 nM | 0.2 nM | 5.3 nM | N#CC[C@H]1CC[C@H](n2c(CC(=O)NCCOCCOCCN)nc3cnc4[nH]ccc4c32)CC1 [Ex. 193, N-(2-(2-(2-Aminoethoxy)ethoxy)ethyl)-2-(1-((1r,4r)-4-(cyanomethyl)cyclohexyl)-1,6-dihydroimidazo[4,5-d]pyrrolo[2,3-b]pyridin-2-yl)acetamide]
133 nM | 1460 nM | 9.4 nM | 72.5 nM | COCCOCCOCc1nc2cnc3[nH]ccc3c2n1[C@H]1CC[C@H](CC#N)CC1 [Ex. 194, 2-((1r,4r)-4-(2-((2-(2-methoxyethoxy)ethoxy)methyl)imidazo[4,5-d]pyrrolo[2,3-b]pyridin-1(6H)-yl)cyclohexyl)acetonitrile]
33.7 nM | 294 nM | 3.3 nM | 11 nM | N#CC[C@H]1CC[C@H](n2c(CC(=O)N3CCC[C@H]3CO)nc3cnc4[nH]ccc4c32)CC1 [Ex. 195, 2-((1S,4r)-4-(2-(2-((S)-2-(hydroxymethyl)pyrrolidin-1-yl)-2-oxoethyl)imidazo[4,5-d]pyrrolo[2,3-b]pyridin-1(6H)-yl)cyclohexyl)acetonitrile]
41.4 nM | 660 nM | 3.4 nM | 41.8 nM | N#CC[C@H]1CC[C@H](n2c(COC(=O)NC34CC5CC(CC(C5)C3)C4)nc3cnc4[nH]ccc4c32)CC1 [Ex. 196, (1-((1r,4r)-4-(Cyanomethyl)cyclohexyl)-1,6-dihydroimidazo[4,5-d]pyrrolo[2,3-b]pyridin-2-yl)methyl (3S,5S,7S)-adamantan-1-ylcarbamate]
15.5 nM | 132 nM | < 4 nM | 6.2 nM | COC1CCN(C(=O)Cc2nc3cnc4[nH]ccc4c3n2[C@H]2CC[C@H](CC#N)CC2)CC1 [Ex. 197, 2-((1r,4r)-4-(2-(2-(4-Methoxypiperidin-1-yl)-2-oxoethyl)imidazo[4,5-d]pyrrolo[2,3-b]pyridin-1(6H)-yl)cyclohexyl)acetonitrile]
2.1 nM | 24.4 nM | < 4 nM | 1.2 nM | CNC(=O)Cc1nc2cnc3[nH]ccc3c2n1[C@H]1CC[C@H](CC#N)CC1 [Ex. 198, 2-(1-((1r,4r)-4-(Cyanomethyl)cyclohexyl)-1,6-dihydroimidazo[4,5-d]pyrrolo[2,3-b]pyridin-2-yl)-N-methylacetamide]
3.6 nM | 109 nM | < 4 nM | 7.9 nM | N#CC[C@H]1CC[C@H](n2c(CC(=O)NCC34CC5CC(CC(C5)C3)C4)nc3cnc4[nH]ccc4c32)CC1 [Ex. 199, N-((3R,5R,7R)-Adamantan-1-ylmethyl)-2-(1-((1r,4r)-4-(cyanomethyl)cyclohexyl)-1,6-dihydroimidazo[4,5-d]pyrrolo[2,3-b]pyridin-2-yl)acetamide]
< 3.5 nM | 13.7 nM | < 4 nM | 12.5 nM | N#CC[C@H]1CC[C@H](n2c(CC(=O)Nc3ccc(C#N)cc3)nc3cnc4[nH]ccc4c32)CC1 [Ex. 200, 2-(1-((1r,4r)-4-(Cyanomethyl)cyclohexyl)-1,6-dihydroimidazo[4,5-d]pyrrolo[2,3-b]pyridin-2-yl)-N-(4-cyanophenyl)acetamide]
1.9 nM | 47.5 nM | < 4 nM | 1.1 nM | N#CC[C@H]1CC[C@H](n2c(CC(N)=O)nc3cnc4[nH]ccc4c32)CC1 [Ex. 201, 2-(1-((1r,4r)-4-(Cyanomethyl)cyclohexyl)-1,6-dihydroimidazo[4,5-d]pyrrolo[2,3-b]pyridin-2-yl)acetamide]
152 nM | 4680 nM | 8.5 nM | 41.5 nM | N#CC[C@H]1CC[C@H](n2c(Cn3c(-c4ccccc4)noc3=O)nc3cnc4[nH]ccc4c32)CC1 [Ex. 203, 2-((1r,4r)-4-(2-((5-Oxo-3-phenyl-1,2,4-oxadiazol-4(5H)-yl)methyl)imidazo[4,5-d]pyrrolo[2,3-b]pyridin-1(6H)-yl)cyclohexyl)acetonitrile]
13.1 nM | 427 nM | 6.7 nM | 10.7 nM | N#CC[C@H]1CC[C@H](n2c(CN/C(=N/O)C3CCCCC3)nc3cnc4[nH]ccc4c32)CC1 [Ex. 204, N-((1-((1r,4r)-4-(Cyanomethyl)cyclohexyl)-1,6-dihydroimidazo[4,5-d]pyrrolo[2,3-b]pyridin-2-yl)methyl)-N′-hydroxycyclohexanecarboximidamide]
487 nM | 439 nM | 5.3 nM | 606 nM | N#CCC12CCC(n3c(CC(=O)N4CCCCC4)nc4cnc5[nH]ccc5c43)(CC1)CC2 [Ex. 205, 2-(4-(2-(2-Oxo-2-(piperidin-1-yl)ethyl)imidazo[4,5-d]pyrrolo[2,3-b]pyridin-1(6H)-yl)bicyclo[2.2.2]octan-1-yl)acetonitrile]
210 nM | 881 nM | 5.6 nM | 158 nM | N#CCC12CCC(n3c(CC(N)=O)nc4cnc5[nH]ccc5c43)(CC1)CC2 [Ex. 206, 2-(1-(4-(Cyanomethyl)bicyclo[2.2.2]octan-1-yl)-1,6-dihydroimidazo[4,5-d]pyrrolo[2,3-b]pyridin-2-yl)acetamide]
198 nM | 375 nM | 6.8 nM | 524 nM | N#CCC12CCC(n3c(CC(=O)Nc4ccccc4)nc4cnc5[nH]ccc5c43)(CC1)CC2 [Ex. 207, 2-(1-(4-(Cyanomethyl)bicyclo[2.2.2]octan-1-yl)-1,6-dihydroimidazo[4,5-d]pyrrolo[2,3-b]pyridin-2-yl)-N-phenylacetamide]
442 nM | 536 nM | 7.6 nM | 714 nM | N#CCC12CCC(n3c(CC(=O)NCC4CCCCC4)nc4cnc5[nH]ccc5c43)(CC1)CC2 [Ex. 208, 2-(1-(4-(Cyanomethyl)bicyclo[2.2.2]octan-1-yl)-1,6-dihydroimidazo[4,5-d]pyrrolo[2,3-b]pyridin-2-yl)-N-(cyclohexylmethyl)acetamide]
520 nM | 604 nM | 18.9 nM | 651 nM | CNC(=O)Cc1nc2cnc3[nH]ccc3c2n1C12CCC(CC#N)(CC1)CC2 [Ex. 209, 2-(1-(4-(Cyanomethyl)bicyclo[2.2.2]octan-1-yl)-1,6-dihydroimidazo[4,5-d]pyrrolo[2,3-b]pyridin-2-yl)-N-methylacetamide]

SMILES | IC50 [1] | IC50 [2] | IC50 [3] | IC50 [4]
CC(C)(C)OCc1nc2cnc3[nH]ccc3c2n1[C@H]1CC[C@H](CC#N)CC1 [Ex. 202, 2-((1r,4r)-4-(2-(tert-Butoxymethyl)imidazo[4,5-d]pyrrolo[2,3-b]pyridin-1(6H)-yl)cyclohexyl)acetonitrile] | 50.9 nM | 1040 nM | 5 nM | 50.9 nM
